Experimental data reported in US10975093B2, “Fused 1,4-diazepines as BET protein degraders” (THE REGENTS OF THE UNIVERSITY OF MICHIGAN, priority 2016, dated 2021).

Columns and labels:
Type in all cases: cell-based
[1] = test system: MDA-MB-468; assay: Cell growth inhibition, CellTiter-Glo Luminescent Cell Viability Assay, MDA-MB-468; conditions: Homo sapiens, 96 h, MDA-MB-468 cells, 4 days incubation
Procedure: (§1) Cell growth inhibitory activity of representative Compounds of the Disclosure was determined in various cell lines using CellTiter-Glo® Luminescent Cell Viability Assay. Cells were seeded in 384-well white opaque cell culture plates at a density of 2,000 cells/well with serially diluted compounds and incubated at 37° C. in an atmosphere of 95% air and 5% CO2 for 4 days. Cell viability was determined using the CellTiter-Glo® Luminescent Cell Viability Assay Kit (Promega, Madison, Wis.) according to the manufacture's instruction. Briefly, a volume of CellTiter-Glo® Reagent equal to the volume of cell culture medium was added to each well, and then the plates were incubated at room temperature for 10-20 minutes. The luminescent signal was measured using a Tecan Infinite M1000 multimode microplate reader (Tecan, Morrisville, N.C.). The half maximal inhibitory concentration (IC50) was calculated using the GraphPad Prism 5 software (GraphPad Software, La Jolla, Calif.).

[2] = test system: MDA-MB-231; assay: Cell growth inhibition, CellTiter-Glo Luminescent Cell Viability Assay, MDA-MB-231; conditions: Homo sapiens, MDA-MB-231 cells, 4 days incubation
Procedure, shortened: (§2)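 IC50 values come from CellTiter-Glo ATP luminescence after a 4-day exposure to a compound dilution series. Seeding was 2,000 cells per well at 37° C under 5% CO2, with reagent read after 10-20 min at room temperature.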

[3] = test system: MOLM-13; assay: Cell growth inhibition, CellTiter-Glo Luminescent Cell Viability Assay, MOLM-13; conditions: Homo sapiens, MOLM-13 cells, 4 days incubation
Procedure, shortened: as §2

[4] = test system: RS4; 11; assay: Cell growth inhibition, CellTiter-Glo Luminescent Cell Viability Assay, RS4;11; conditions: Homo sapiens, 96 h, RS4;11 cells, 4 days incubation
Procedure: as §1

IC50 ([2]; MDA-MB-231, 96 h)	IC50 ([3]; MOLM-13, 96 h)	IC50 [4]	SMILES	IC50 [1]	IC50 ([2]; 96 h)	IC50 ([3]; 96 h)
> 100 nM	22.8 nM	7 nM	Cc1c(C#Cc2cncn2CCCC#Cc2cccc3c2C(=O)N(C2CCC(=O)NC2=O)C3=O)sc2c1C(c1ccc(Cl)cc1)=NCc1nnc(C)n1-2 (stereo not drawn) [Cpd. No. 29, 4-(5-(5-((4-(4-chlorophenyl)-3,9-dimethyl-6H-thieno[3,2-f][1,2,4]triazolo[4,3-a][1,4]diazepin-2-yl)ethynyl)-1H-imidazol-1-yl)pent-1-yn-1-yl)-2-(2,6-dioxopiperidin-3-yl)isoindoline-1,3-dione]	> 100 nM	–	–
–	–	–	Cc1c(C#Cc2ccc(OCCCCc3cccc4c3CN(C3CCC(=O)NC3=O)C4=O)cn2)sc2c1C(c1ccc(Cl)cc1)=N[C@@H](C)c1nnc(C)n1-2 (stereo partly drawn) [Cpd. No. 12, 3-(4-(4-((6-(((S)-4-(4-chlorophenyl)-3,6,9-trimethyl-6H-thieno[3,2-f][1,2,4]triazolo[4,3-a][1,4]diazepin-2-yl)ethynyl)pyridin-3-yl)oxy)butyl)-1-oxoisoindolin-2-yl)piperidine-2,6-dione]	3 nM	0.86 nM	1.2 nM
12.7 nM	–	3.7 nM	Cc1c(C#Cc2cnn(CCCCN3C(=O)CCC(N4Cc5c(N)cccc5C4=O)C3=O)c2)sc2c1C(c1ccc(Cl)cc1)=N[C@@H](C)c1nnc(C)n1-2 (stereo partly drawn) [compound 165, 3-(4-amino-1-oxoisoindolin-2-yl)-1-(4-(4-(((S)-4-(4-chlorophenyl)-3,6,9-trimethyl-6H-thieno[3,2-f][1,2,4]triazolo[4,3-a][1,4]diazepin-2-yl)ethynyl)-1H-pyrazol-1-yl)butyl)piperidine-2,6-dione]	–	–	–
22 nM	–	2.4 nM	Cc1c(C#Cc2cnn(CCCC#Cc3cccc4c3CN(C3CCC(C)NC3=O)C4=O)c2)sc2c1C(c1ccc(Cl)cc1)=N[C@@H](C)c1nnc(C)n1-2 (stereo partly drawn) [compound 162, 4-(5-(4-(((S)-4-(4-chlorophenyl)-3,6,9-trimethyl-6H-thieno[3,2-f][1,2,4]triazolo[4,3-a][1,4]diazepin-2-yl)ethynyl)-1H-pyrazol-1-yl)pent-1-yn-1-yl)-2-(6-methyl-2-oxopiperidin-3-yl)isoindolin-1-one]	–	–	–
71.8 nM	–	20.4 nM	Cc1c(C#Cc2cnn(CCCC#Cc3cccc4c3CN(C3CCC(C)NC3=O)C4=O)c2)sc2c1C(c1ccc(Cl)cc1)=NCc1nnc(C)n1-2 (stereo not drawn) [compound 161, 4-(5-(4-((4-(4-chlorophenyl)-3,9-dimethyl-6H-thieno[3,2-f][1,2,4]triazolo[4,3-a][1,4]diazepin-2-yl)ethynyl)-1H-pyrazol-1-yl)pent-1-yn-1-yl)-2-(6-methyl-2-oxopiperidin-3-yl)isoindolin-1-one]	–	–	–
0.39 nM	–	0.13 nM	Cc1c(C#Cc2cnn(CCCCNc3cccc4c3CN(C3CCC(=O)NC3=O)C4=O)c2)sc2c1C(c1ccc(Cl)cc1)=N[C@@H](C)c1nnc(C)n1-2 (stereo partly drawn) [compound 145, 3-(4-((4-(4-(((S)-4-(4-chlorophenyl)-3,6,9-trimethyl-6H-thieno[3,2-f][1,2,4]triazolo[4,3-a][1,4]diazepin-2-yl)ethynyl)-1H-pyrazol-1-yl)butyl)amino)-1-oxoisoindolin-2-yl)piperidine-2,6-dione]	–	–	–
3.7 nM	–	–	Cc1c(C#Cc2cnn(CCCC#Cc3cccc4c3C(=O)N(C3CCC(=O)NC3=O)C4=O)c2)sc2c1C(c1ccc(Cl)cc1)=N[C@@H](C)c1nnc(C)n1-2 (stereo partly drawn) [Cpd. No. 30, 4-(5-(4-(((S)-4-(4-chlorophenyl)-3,6,9-trimethyl-6H-thieno[3,2-f][1,2,4]triazolo[4,3-a][1,4]diazepin-2-yl)ethynyl)-1H-pyrazol-1-yl)pent-1-yn-1-yl)-2-(2,6-dioxopiperidin-3-yl)isoindoline-1,3-dione]	3.6 nM	–	–
7.4 nM	6.4 nM	–	Cc1c(C#Cc2ccc(CCCC#Cc3cccc4c3CN(C3CCC(=O)NC3=O)C4=O)cn2)sc2c1C(c1ccc(Cl)cc1)=NCc1nnc(C)n1-2 (stereo not drawn) [Cpd. No. 13, 3-(4-(5-(6-((4-(4-chlorophenyl)-3,9-dimethyl-6H-thieno[3,2-f][1,2,4]triazolo[4,3-a][1,4]diazepin-2-yl)ethynyl)pyridin-3-yl)pent-1-yn-1-yl)-1-oxoisoindolin-2-yl)piperidine-2,6-dione]	32.4 nM	–	–
78.5 nM	–	74 nM	Cc1c(C#Cc2cnn(CCCCNc3cccc4c3C(=O)N(C3CCC(=O)NC3)C4=O)c2)sc2c1C(c1ccc(Cl)cc1)=NCc1nnc(C)n1-2 (stereo not drawn) [compound 164, 4-((4-(4-((4-(4-chlorophenyl)-3,9-dimethyl-6H-thieno[3,2-f][1,2,4]triazolo[4,3-a][1,4]diazepin-2-yl)ethynyl)-1H-pyrazol-1-yl)butyl)amino)-2-(6-oxopiperidin-3-yl)isoindoline-1,3-dione]	–	–	–
0.18 nM	0.24 nM	–	Cc1c(C#Cc2ccc(CCCC#Cc3cccc4c3CN(C3CCC(=O)NC3=O)C4=O)cn2)sc2c1C(c1ccc(Cl)cc1)=N[C@@H](C)c1nnc(C)n1-2 (stereo partly drawn) [Cpd. No. 14, 3-(4-(5-(6-(((S)-4-(4-chlorophenyl)-3,6,9-trimethyl-6H-thieno[3,2-f][1,2,4]triazolo[4,3-a][1,4]diazepin-2-yl)ethynyl)pyridin-3-yl)pent-1-yn-1-yl)-1-oxoisoindolin-2-yl)piperidine-2,6-dione]	1.1 nM	–	–
–	–	–	Cc1c(C#Cc2ccc(OCCCCc3cccc4c3CN(C3CCC(=O)NC3=O)C4=O)cn2)sc2c1C(c1ccc(Cl)cc1)=NCc1nnc(C)n1-2 (stereo not drawn) [Cpd. No. 11, 3-(4-(4-((6-((4-(4-chlorophenyl)-3,9-dimethyl-6H-thieno[3,2-f][1,2,4]triazolo[4,3-a][1,4]diazepin-2-yl)ethynyl)pyridin-3-yl)oxy)butyl)-1-oxoisoindolin-2-yl)piperidine-2,6-dione]	51 nM	18.1 nM	11.4 nM

SMILES	IC50 ([2]; MDA-MB-231, 96 h)	IC50 ([3]; MOLM-13, 96 h)	IC50 [4]	IC50 [1]	IC50 ([2]; 96 h)	IC50 ([3]; 96 h)
Cc1c(C#Cc2ccc(CCCCOc3cccc4c3C(=O)N(C3CCC(=O)NC3=O)C4=O)cn2)sc2c1C(c1ccc(Cl)cc1)=N[C@@H](C)c1nnc(C)n1-2 (stereo partly drawn) [Cpd. No. 10, 4-(4-(6-(((S)-4-(4-chlorophenyl)-3,6,9-trimethyl-6H-thieno[3,2-f][1,2,4]triazolo[4,3-a][1,4]diazepin-2-yl)ethynyl)pyridin-3-yl)butoxy)-2-(2,6-dioxopiperidin-3-yl)isoindoline-1,3-dione]	–	–	0.26 nM	5.2 nM	1.6 nM	2.5 nM
Cc1c(C#Cc2ccc(CCCCOc3cccc4c3C(=O)N(C3CCC(=O)NC3=O)C4=O)cn2)sc2c1C(c1ccc(Cl)cc1)=NCc1nnc(C)n1-2 (stereo not drawn) [Cpd. No. 9, 4-(4-(6-((4-(4-chlorophenyl)-3,9-dimethyl-6H-thieno[3,2-f][1,2,4]triazolo[4,3-a][1,4]diazepin-2-yl)ethynyl)pyridin-3-yl)butoxy)-2-(2,6-dioxopiperidin-3-yl)isoindoline-1,3-dione]	–	–	2.3 nM	33 nM	20.4 nM	19 nM
Cc1c(C#Cc2cn(CCCC#Cc3cccc4c3CN(C3CCC(=O)NC3=O)C4=O)cn2)sc2c1C(c1ccc(Cl)cc1)=NCc1nnc(C)n1-2 (stereo not drawn) [Cpd. No. 26, 3-(4-(5-(4-((4-(4-chlorophenyl)-3,9-dimethyl-6H-thieno[3,2-f][1,2,4]triazolo[4,3-a][1,4]diazepin-2-yl)ethynyl)-1H-imidazol-1-yl)pent-1-yn-1-yl)-1-oxoisoindolin-2-yl)piperidine-2,6-dione]	–	–	> 10 nM	> 100 nM	> 100 nM	39.2 nM
Cc1c(C#Cc2cn(CCCCCc3cccc4c3CN(C3CCC(=O)NC3=O)C4=O)nn2)sc2c1C(c1ccc(Cl)cc1)=N[C@@H](C)c1nnc(C)n1-2 (stereo partly drawn) [Cpd. No. 4, 3-(4-(5-(4-(((S)-4-(4-chlorophenyl)-3,6,9-trimethyl-6H-thieno[3,2 f][1,2,4]triazolo[4,3-a][1,4]diazepin-2-yl)ethynyl)-1H-1,2,3-triazol-1-yl)pentyl)-1-oxoisoindolin-2-yl)piperidine-2,6-dione]	–	–	< 0.0015 nM	< 0.015 nM	< 0.015 nM	0.3 nM
Cc1c(C#Cc2cnn(CCCCOc3cccc4c3C(=O)N(C3CCC(=O)NC3=O)C4=O)c2)sc2c1C(c1ccc(Cl)cc1)=N[C@@H](C)c1nnc(C)n1-2 (stereo partly drawn) [Cpd. No. 32, 4-(4-(4-(((S)-4-(4-chlorophenyl)-3,6,9-trimethyl-6H-thieno[3,2-f][1,2,4]triazolo[4,3-a][1,4]diazepin-2-yl)ethynyl)-1H-pyrazol-1-yl)butoxy)-2-(2,6-dioxopiperidin-3-yl)isoindoline-1,3-dione]	2.5 nM	–	–	3.5 nM	–	–
Cc1c(C#Cc2cnn(CCCCOc3cccc4c3CN(C3CCC(=O)NC3=O)C4=O)c2)sc2c1C(c1ccc(Cl)cc1)=N[C@@H](C)c1nnc(C)n1-2 (stereo partly drawn) [compound 147, 3-(4-(4-(4-(((S)-4-(4-chlorophenyl)-3,6,9-trimethyl-6H-thieno[3,2-f][1,2,4]triazolo[4,3-a][1,4]diazepin-2-yl)ethynyl)-1H-pyrazol-1-yl)butoxy)-1-oxoisoindolin-2-yl)piperidine-2,6-dione]	0.08 nM	–	0.05 nM	–	–	–
